# Assay results from paper PMC12473689, “Drug Metabolism and Pharmacokinetics of Oxazolo[4,5-c]quinoline Analogs as Novel Interleukin-33 Inhibitors” (Pharmaceutics, 2025).
# Experiments:
# Type in all cases: in vitro ADME
# [1] = In vitro metabolic stability in pooled human liver S9 fraction; details: for remaining at 1 h, 3 µM / half-life at 3 µM: pH 7.4, HLS9 1 mg/mL, 3 µM compound; for remaining at 1 h, 3 µM: cofactors NADPH, UDPGA, PAPS, GSH, 37 °C, read-out: % remaining after 60 min; for half-life at 3 µM: with cofactors, one-phase decay fit, read-out: in vitro t½ (estimated); for microsomal CLint at 3 µM: pH 7.4, HLS9, CLint,u = k/(fu,S9 × [S9]), read-out: CLint,u (unbound intrinsic clearance)
# Protocol: (§1) Metabolic stability was assessed using pooled HLS9 and MLS9 fractions. The S9 fractions (20 mg/mL) were diluted to 1 mg/mL with 0.1 M potassium phosphate buffer (pH 7.4). Stock solutions of KB-1517 and KB-1518 (10 mM in DMSO) were diluted in 50% aqueous acetonitrile to prepare working solutions (120 µM). A Tris mix buffer containing 1 M Tris-HCl (pH 7.4), 10 mM MgCl2, and 125 µg/mL alamethicin was prepared. A combined cofactor solution was prepared in 0.1 M potassium phosphate buffer (pH 7.4): 10 mM NADPH, 5 mM UDPGA, 1 mM PAPS, and 25 mM GSH.
# (§2) The incubation mixture (final volume 200 µL) contained: 125 µL of deionized water, 40 µL of Tris mix buffer, 10 µL of 20 mg protein/mL S9 fraction (final concentration 1 mg protein/mL), and 5 µL of the test compound working solution (final concentration 3 µM). The final concentrations of DMSO and acetonitrile were 0.03% and 1%, respectively. The mixture was pre-incubated at 37 °C for 5 min in a shaking water bath. The reaction was initiated by adding 20 µL of the combined cofactor solution (final concentrations: 1 mM NADPH, 0.5 mM UDPGA, 0.1 mM PAPS, 2.5 mM GSH). Control incubations were performed without the cofactor mixture (replaced with buffer) and at 0 min (quenched immediately after adding cofactors). Incubations were carried out at 37 °C for 0, 15, 30, and 60 min (for stability) or 60 min (for metabolite ID). Reactions were terminated by adding 200 µL of ice-cold acetonitrile containing IS (diclofenac).
# (§3) Terminated samples were sonicated (5 min), vortexed (1500 rpm, 5 min), and centrifuged (3000 rpm, 20 min, 4 °C). An aliquot (150 µL) of the supernatant was transferred to a 96-well plate for LC-MS/MS analysis as described in Section 2.6.2.
# (§4) Noncompartmental analysis (NCA) was performed using PKSolver to determine pharmacokinetic parameters from the plasma concentration-time data. Parameters included: maximum plasma concentration (Cmax), time to reach Cmax (tmax), terminal elimination half-life (t1/2), area under the plasma concentration-time curve from time zero to the last measurable concentration (AUClast), area under the plasma concentration-time curve extrapolated to infinity (AUCinf), total body clearance (CL), and volume of distribution at steady state (Vss). Oral bioavailability (F) was calculated as: F(%) = (AUCinf,PO/AUCinf,IV)× (DoseIV/DosePO)×100. Due to the anomalous profile of KB-1517, AUClast was used for its F calculation, and some parameters (t½, CL, Vss for IV; AUCinf for PO) could not be reliably determined (ND). The metabolic rate constant (k) was determined by fitting the in vitro metabolic stability data to a one-phase decay equation via nonlinear regression using GraphPad Prism (Version 10, GraphPad Software, Boston, MA, USA). The in vitro t1/2 was calculated from the equation t1/2 = ln(2)/k. Subsequently, the unbound intrinsic clearance (CLint,u) was calculated as follows: CLint,u = k/(fu,S9 × [S9]), where fu,S9 is the fraction unbound in the S9 incubation and [S9] is the S9 protein concentration.
# (§5) The metabolic stability of KB-1517 and KB-1518 was evaluated by incubating the compounds (3 µM) with HLS9 and MLS9 fractions (1 mg/mL) in the presence of a comprehensive set of phase I and phase II cofactors (NADPH, UDPGA, PAPS, and GSH) for up to 60 min.
# [2] = In vitro metabolic stability in pooled mouse liver S9 fraction; details: male, ICR; for remaining at 1 h, 3 µM / half-life at 3 µM: pH 7.4, MLS9 1 mg/mL, 3 µM compound; for remaining at 1 h, 3 µM: cofactors NADPH, UDPGA, PAPS, GSH, 37 °C, read-out: % remaining after 60 min; for half-life at 3 µM: with cofactors, one-phase decay fit, read-out: in vitro t½ (estimated); for microsomal CLint at 3 µM: pH 7.4, MLS9, CLint,u = k/(fu,S9 × [S9]), read-out: CLint,u (unbound intrinsic clearance)
# Protocol: as §1, §2, §3, §4, §5
# [3] = Plasma protein binding by equilibrium dialysis (RED), human plasma; details: equilibrium dialysis 37 °C 4 h, mean ± SD (n = 3), read-out: fu (%) plasma protein binding
# Protocol: (§6) The nonspecific binding of KB-1517 and KB-1518 in human and mouse plasma and liver S9 fractions was determined by equilibrium dialysis using a Rapid Equilibrium Device (RED) system (Thermo Fisher Scientific, Seoul, Republic of Korea).
# (§7) Working solutions (200 μM for plasma, 60 μM for S9 fractions) were prepared in 40% aqueous acetonitrile. These were diluted 20-fold into either plasma or S9 incubation buffer (1 mg/mL protein, 200 mM Tris-HCl, 2 mM MgCl2, pH 7.4) to create the final dosing solutions.
# (§8) For the dialysis, RED inserts (8 kDa MWCO) were used. Into each device, 200 μL of a dosing solution was added to the sample chamber, and 350 μL of PBS was added to the buffer chamber. The plate was sealed and incubated at 37 °C for 4 h on an orbital shaker (100 rpm) to allow the system to reach equilibrium.
# (§9) Following incubation, 50 μL aliquots were taken from both chambers. To ensure analytical consistency, the samples were matrix-matched: the sample chamber aliquot was mixed with 50 μL of PBS, and the buffer chamber aliquot was mixed with 50 μL of the corresponding blank matrix (plasma or S9 incubation buffer). Proteins were then precipitated by adding 200 μL of ice-cold acetonitrile containing diclofenac (1 μg/mL) as IS. The samples were subsequently vortexed, sonicated for 5 min, and centrifuged at 4000× g for 20 min. Finally, a 100 μL aliquot of the resulting supernatant was diluted with 100 μL of HPLC-grade water in a 96-well plate for subsequent LC-MS/MS analysis.
# [4] = Plasma protein binding by equilibrium dialysis (RED), mouse plasma; details: male, ICR, equilibrium dialysis 37 °C 4 h, mean ± SD (n = 3), read-out: fu (%) plasma protein binding
# Protocol: as §6, §7, §8, §9
# [5] = Binding in human liver S9 fraction by equilibrium dialysis (RED); details: equilibrium dialysis 37 °C 4 h, mean ± SD (n = 3)
# Protocol: as §6, §7, §8, §9
# [6] = Binding in mouse liver S9 fraction by equilibrium dialysis (RED); details: equilibrium dialysis 37 °C 4 h, mean ± SD (n = 3)
# Protocol: as §6, §7, §8, §9
SMILES,"remaining at 1 h, 3 µM [1] [%]",half-life at 3 µM [1] [h],microsomal CLint at 3 µM [1] [µL/min/mg],"remaining at 1 h, 3 µM [2] [%]",half-life at 3 µM [2] [h],microsomal CLint at 3 µM [2] [µL/min/mg],"fraction unbound at 4 h, 10 µM [3]","fraction unbound at 4 h, 10 µM [4]","fu (%) in liver S9 fractions ([5]; human liver S9, 1 mg/mL protein) [%]","fraction unbound at 4 h, 3 µM ([5]; human, liver S9 fraction, pH 7.4, human liver S9, 1 mg/mL protein, read-out: fu (%) in liver S9 fractions)","fraction unbound at 4 h, 3 µM ([6]; ICR, mouse, liver S9 fraction, pH 7.4, mouse liver S9, 1 mg/mL protein, read-out: fu (%) in liver S9 fractions)","fu (%) in liver S9 fractions ([6]; mouse liver S9, 1 mg/mL protein) [%]"
"CN(C)CCn1c(=O)c2nc(-c3ccc(C(F)(F)F)cc3)oc2c2ccccc21 [KB-1517, 5-(2-(dimethylamino)ethyl)-2-(4-(trifluoromethyl)phenyl)oxazolo[4,5-c]quinolin-4(5H)-one]",81.9 ± 0.7,3.09,19.6,67.2 ± 1,3.06,25,< 0.02,< 0.02,19.1 ± 0.7,< 0.2,< 0.2,15.1 ± 0.8
"CN(C)CCOc1nc2ccccc2c2oc(-c3ccc(C(F)(F)F)cc3)nc12 [KB-1518, N,N-dimethyl-2-((2-(4-(trifluoromethyl)phenyl)oxazolo[4,5-c]quinolin-4-yl)oxy)ethan-1-amine]",74.2 ± 2.5,1.88,101,57.2 ± 1.3,1.24,216,–,–,–,–,–,–
